In patent US11058737B2, “Use of Euycoma longifolia extract in alleviating symptoms and/or conditions associated with hormonal imbalance in females” ([…] BERHAD, priority 2018, dated 2021):

Assays:
Type in all cases: in vivo, Sprague Dawley rats
ovariectomized rat model [1] = experiment: Biochemical estimations: serum calcium, phosphate, bone alkaline phosphatase, osteocalcin; conditions: ovariectomized rats
Method: (§1) The test item, i.e. aqueous extract of Eurycoma longifolia, was studied for its capabilities or effect in relation to the alleviation or treatment of menopause symptoms and hormonal activity against ovariectomized rat model in vivo.
(§2) 48 female Sprague dawley rats were ovariectomized or sham operated. Both sham and ovariectomized rats (n=8) received the vehicle. The remaining 3 group ovariectomized rats were orally administrated with Eurycoma longifolia aqueous extract 100 mg/kg, 300 mg/kg and 500 mg/kg b.w. The treatment continued for 8 weeks. Group 6 ovariectomized rats received testosterone undecanoate (10 mg/kg b.w) through the route of intramuscular injection once in every 4 weeks for 8 weeks. At week 8 of the last dose, sexual behaviors were recorded. Blood was collected for biochemical analysis. Calcium, phosphate, bone alkaline phosphatase (ALP), osteocalcin and hormone profile estimation was done.
(§3) Test System • Animal species: Rats • Strain: Sprague Dawley • Justification for Selection of Species: Recommended and Justified by sponsor • Sex: Female • Age: 10-12 weeks (Mohamed et al, 2016) • Source of supply: In house breed • No. of groups: 6 • Group 1: Sham operated group (surgically opened but no ovariectomy) • Group 2: Ovariectomy group (Negative control) • Group 3: Ovariectomy+Low dose extract • Group 4: Ovariectomy+Middle dose extract • Group 5: Ovariectomy+High dose extract • Group 6: Ovariectomy+Testosterone undecanoate (Positive control) • No. of Animals/Group: 8 females/group • Age at Treatment: 12 weeks • Body Weight Range at Receipt: 120-250 gms • Animal Identification: Each animal will be marked by picric acid and numbering will be given individually to each animal. • Acclimatization: The rats were acclimatized for 1 week before treatment.
(§4) In Group 2, only ovariectomy was performed. Group 3, Group 4 and Group 5 received the Eurycoma longifolia aqueous extract daily at low dose (100 mg/kg), middle dose (300 mg/kg) and high dose (500 mg/kg) at respective concentrations orally for 8 weeks, whereas Group 6 received Testosterone undecanoate (10 mg/kg) intramuscular injection once in every 4 weeks for 8 weeks. • (i) Surgical Procedure • Anesthesia was induced by intraperitoneal injection of ketamine HCL (80 mg/kg) and the depth of anesthesia was checked by monitoring respiratory rate or simply testing the animal response to gentle pressure on the hind paws. After the onset of anesthesia, animal was placed under operating area. Clippers were used to clip the skin and shaved fur bilaterally to expose skin. The procedure was carried out by making two incisions to separately reach each ovary. Shaved skin was swab with 70% (v/v) ethanol. Anaesthetized animal was placed on the operating table with its back exposed and its tail towards the operator. A single dorsal incision (1 cm) was made penetrating the skin using small scissors. Incision was made in the lower back, directly below the bottom of the rib cage. Gently subcutaneous connective tissue was made free from the underlying muscle on each side using blunt forceps. Ovary was located under the thin muscle layer and a small incision (less than 1 cm) was made on each side to gain entry to the peritoneal cavity. The edge of the incision was holded securely with tooth forceps and the ovarian fat pad was retracted surrounding ovaries with blunt forceps to expose oviduct. […] 30 gms feed was added daily to each animal in the morning time and leftover feed was recorded on next day from the same animal cage. […]

[2] = Body weight of ovariectomized rats; conditions: 10 mg/kg intramuscular once every 4 weeks
Method: as §2, §3
as §4, with “oviduct. Ovary was removed by gently severing the oviduct, using sterile, small scissors. Uterus was replaced and remaining part of the oviduct back into the abdominal cavity. Muscle layer was sutured and procedure was repeated for the other ovary.” for “oviduct.”

ovariectomized rat model [3] = experiment: Reproductive hormone levels in rat serum (FSH, LH, progesterone, estrogen, testosterone; CLIA); conditions: ovariectomized rats, 10 mg/kg intramuscular once every 4 weeks, 8 weeks
Method: as §1, §2, §3, §4

ovariectomized rats = experiment: Clinical signs of toxicity and mortality in ovariectomized rat model; conditions: 10 mg/kg intramuscular once every 4 weeks, 8 weeks
Method: as §2, with “done. […]” for “done.”
(§5) In Group 2, only ovariectomy was performed. […] 30 gms feed was added daily to each animal in the morning time and leftover feed was recorded on next day from the same animal cage. […]

ovariectomized rat model [4] = experiment: Uterus weight at necropsy; conditions: ovariectomized rats, 10 mg/kg intramuscular once every 4 weeks
Method: as §2, with “done. […]” for “done.”
as §5

[5] = serum, 10 mg/kg intramuscular once every 4 weeks, 8 weeks, 10 mg/kg

CCCCCCCCCCC(=O)O[C@H]1CC[C@H]2[C@@H]3CCC4=CC(=O)CC[C@]4(C)[C@H]3CC[C@]12C [Testosterone undecanoate]
serum osteocalcin levels, change (ovariectomized rat model [1]; positive control 10 mg/kg intramuscular, no significant changes): Decreased serum osteocalcin levels
Osteocalcin (ovariectomized rat model [1]; serum, 10 mg/kg intramuscular once every 4 weeks, 8 weeks): 7.26 ± 0.20 ng/mL
Bone Alkaline phosphatase (ovariectomized rat model [1]; [5]): 3.06 ± 0.12 ng/mL
Calcium (ovariectomized rat model [1]; [5]): 8.48 ± 0.16 mg/dL
Phosphate (ovariectomized rat model [1]; [5]): 3.29 ± 0.13 mg/dL
Body Weight ([2]; Basal): 185.0 ± 3.35
Body Weight ([2]; Week 1): 196.0 ± 3.17
Body Weight ([2]; Week 2): 207.4 ± 2.99
Body Weight ([2]; Week 3): 217.8 ± 3.31
Body Weight ([2]; Week 4): 229.4 ± 3.24
Body Weight ([2]; Week 5): 238.6 ± 3.33
Body Weight ([2]; Week 6): 244.8 ± 3.53
Body Weight ([2]; Week 7): 252.9 ± 4.37
Body Weight ([2]; Week 8): 259.3 ± 4.85
Percentage of Weight Gain ([2]; from basal to Week 1): 5.95%
Percentage of Weight Gain ([2]; from basal to Week 2): 12.11%
Percentage of Weight Gain ([2]; from basal to Week 3): 17.73%
Percentage of Weight Gain ([2]; from basal to Week 4): 24.00%
Percentage of Weight Gain ([2]; from basal to Week 5): 28.97%
Percentage of Weight Gain ([2]; from basal to Week 6): 32.32%
Percentage of Weight Gain ([2]; from basal to Week 7): 36.70%
Percentage of Weight Gain ([2]; from basal to Week 8): 40.16%
Estrogen (ovariectomized rat model [3]): 12.35 ± 0.25 pg/mL
FSH (ovariectomized rat model [3]): 3.96±0.22 mlU/ml
LH (ovariectomized rat model [3]): 3.76±0.11 mlU/ml
Progesterone (ovariectomized rat model [3]): 3.31 ± 0.15 ng/mL
Testosterone (ovariectomized rat model [3]): 13.01 ± 0.41 ng/mL
No. of Mortality/No. of Animals Dosed (ovariectomized rats): 0/8
uterus weight, effect after ovariectomy (ovariectomized rat model [4]): prevented the ovariectomy induced loss of uterus weight
UTERUS WEIGHT (ovariectomized rat model [4]; 8 weeks, 10 mg/kg): 389.74 ± 8.26 mg
